The results in this text go back to US6342508B1, “N-hydroxy-2-(Alkyl,Aryl or Heteroaryl sulfanyl, sulfinyl or sulfonyl) 3-substituted alkyl, aryl or heteroarylamides as matrix metalloproteinase inhibitors” (American Cyanamid Company, priority 1997, dated 2002).

Structures can show the parent of a compound that is named as a salt.

Tested on in the first series: not given
Test: not given
Details: not given
With `COc1ccc(S(=O)(=O)C(C)(Cc2ccc(OCCN3CCCCCC3)cc2)C(=O)NO)cc1` (stereo not drawn) [Example 18], the melting point – broadly, the temperature of the solid-liquid transition – stood at 68 °C. On the same count and under the same terms, the result for `COc1ccc(CCN2CCC(C(=O)NO)(S(=O)(=O)c3ccc(OC)cc3)CC2)cc1` (as salt: HCl) [Example 102, 4-(4-methoxy-benzenesulfonyl)-1-[2-(4-methoxyphenyl)-ethyl]-piperidine-4-carboxylic acid hydroxyamide] reads 206 °C; that for `COc1ccc(S(=O)(=O)C(C)(Cc2cccnc2)C(=O)NO)cc1` (stereo not drawn) [Example 61, N-hydroxy-2-(4-methoxy-benzenesulfonyl)-2-methyl-3-pyridin-3-yl-propionamide], 98 °C.

The molecule `CCCCCCCCCCCCC(C(=O)NO)S(=O)(=O)c1ccc(OC)cc1` (stereo not drawn) [Example 11, 2-(4-Methoxy-benzenesulfonyl)-tetradecanoic hydroxyamide] registered a melting point of 114 °C. Same read-out and setting: the result for `CCCCOc1ccc(S(=O)(=O)C2(C(=O)NO)CCN(Cc3ccccc3)CC2)cc1` [Example 98, 1-Benzyl-4-(4-butoxy-benzenesulfonyl)-piperidine-4-carboxylic acid hydroxyamide] reads 144 °C. Same read-out and setting: the same measure for `CCCCCC(Sc1ccc(OC)cc1)C(=O)NO` (stereo not drawn) [Example 80, 2-(4methoxy-phenylsulfanyl)-heptanoic acid hydroxyamide]: 90 to 95 °C; for `CCC(Cc1ccc(OCCN2CCCCC2)cc1)(C(=O)NO)S(=O)(=O)c1ccc(OC)cc1` (stereo not drawn) [Example 34, N-Hydroxy-2-(4-methoxy-benzenesulfonyl)-2-[4-(2-piperdin-1-yl-ethoxy)-benzyl]-butyramide]: 75 °C. Turning to `CCCCCC#CCC(CC#CCCCCC)(C(=O)NO)S(=O)(=O)c1ccc(OC)cc1` [Example 71, 2-(4-methoxy-benzenesulfonyl)-2-oct-2-ynyl-dec-4-ynoic acid hydroxyamide], the melting point is 83 to 84 °C. With `COc1ccc(S(=O)(=O)C2(C(=O)NO)CCN(Cc3ccc(C)cc3)CC2)cc1` [Example 86, 4-(4-methoxy-benzenesulfonyl)-1-(4-methylbenzyl)-piperidine-4-carboxylic acid hydroxamide], the melting point is 176 to 177 °C. The same measure, in the same setting: the result for `CCCCC(C(=O)NO)S(=O)(=O)c1ccc(OC)cc1` (stereo not drawn) [Example 10, 2-(4-Methoxy-benzenesulfonyl)-hexanoic acid hydroxyamide] reads 130 °C; that for `COc1ccc(S(=O)(=O)C2(C(=O)NO)CCN(CCCOc3ccccc3)CC2)cc1` [Example 105, 4-(4-Methoxy-benzenesulfonyl)-1-(3-phenoxy-propyl)-piperidine-4-carboxylic acid hydroxyamide], 101 °C. With `CCCCN1CCC(C(=O)NO)(S(=O)(=O)c2ccc(OC)cc2)CC1` [Example 93, 1-Butyl-4-(4-methoxy-benzenesulfonyl)-piperidine-4-carboxylic acid hydroxyamide], the melting point worked out at 75 °C. For the molecule `CCN(CC)CCOc1ccc(CC(C)(C(=O)NO)S(=O)(=O)c2ccc(OC)cc2)cc1` (stereo not drawn) (as salt: HCl) [Example 21, N-Hydroxy-2-(4-methoxy-benzenesulfonyl)-2-methyl-3-[4-(2-N,N-diethylamino-ethoxy)-phenyl]-propionamide], the melting point lay within 56 to 59 °C. The molecule `COc1ccc(SC(C)(CC=C(C)C)C(=O)NO)cc1` (stereo not drawn) [Example 3, 2-(4-Methoxy-phenylsulfanyl)-2,5-dimethyl-hex-4-enoic acid hydroxyamide] showed a melting point of 89 °C. Regarding `COc1ccc(S(=O)(=O)C(C)(CC2CCCCC2)C(=O)NO)cc1` (stereo not drawn) [Example 16, 3-Cyclohexyl-N-hydroxy-2-(4-methoxy-benzenesulfonyl)-2-methyl-propionamide], the melting point stood at 58 °C. For the molecule `COc1ccc([S+]([O-])C(C(=O)NO)C(C)C)cc1` (stereo not drawn) [Example 7, N-Hydroxy-2-(4-methoxy-benzenesulfinyl)-3-methyl-butyramide], the melting point worked out at 163 °C.

`COc1ccc(S(=O)(=O)C(C)(Cc2ccccc2Br)C(=O)NO)cc1` (stereo not drawn) [Example 55, 3-(2-Bromo-phenyl)-N-hydroxy-2-(4-methoxy-benzenesulfonyl)-2-methyl-propionamide]: the melting point was in the range of 93 to 96 °C. Still for that read-out and setting: the same measure for `COc1ccc(S(=O)(=O)C(C)(Cc2ccc(-c3ccccc3)cc2)C(=O)NO)cc1` (stereo not drawn) [Example 14, 3-(Biphenyl-4-yl)-N-hydroxy-2-(4-methoxy-benzenesulfonyl)-2-methyl-propionamide]: 177 °C. In the case of `COc1ccc(SC(C)(Cc2ccccc2)C(=O)NO)cc1` (stereo not drawn) [Example 1, N-Hydroxy-2-(4-methoxy-phenylsulfanyl)-2-methyl-3-phenyl-propionamide], the melting point was 88 °C. `COc1ccc(S(=O)(=O)C(C)(Cc2cccc(OCCN3CCOCC3)c2)C(=O)NO)cc1` (stereo not drawn) [Example 30, N-Hydroxy-2-(4-methoxy-benzenesulfonyl)-2-methyl-3-[3-(2-morpholin-1-yl-ethoxy)-phenyl]-propionamide] registered a melting point of 63 °C.

Turning to `COc1ccc(S(=O)(=O)C(C)(Cc2ccc(OCCN(C(C)C)C(C)C)cc2)C(=O)NO)cc1` (stereo not drawn) (as salt: HCl) [Example 20, N-Hydroxy-2-(4-methoxy-benzenesulfonyl)-2-methyl-3-[4-(2-N,N-diisopropylamino-ethoxy)-phenyl]-propionamide], the melting point came out at 98 °C. `COc1ccc(CN2CCC(C(=O)NO)(S(=O)(=O)c3ccc(OC)cc3)CC2)cc1` (as salt: HCl) [Example 101, 4-(4-methoxy-benzenesulfonyl)-1-(4-methoxy-benzyl)-piperidine-4-carboxylic acid hydroxyamide] came in with a melting point of 175 °C. `Cn1ccnc1S(=O)(=O)C(C)(Cc1ccc(-c2ccccc2)cc1)C(=O)NO` (stereo not drawn) [Example 47, 3-Biphenyl-4-yl-2-methyl-2-(1-methyl-1H-imidazole-2-sulfonyl)-propionic acid hydroxyamide] returned a melting point of 112 °C. On to `CCCCCCC(Cc1ccc(OCCN2CCCCCC2)cc1)(C(=O)NO)S(=O)(=O)c1ccc(OC)cc1` (stereo not drawn) [Example 36, 2-[4-(2-Azepan-1-yl-ethoxy)-benzyl]-2-(4-Methoxy-benzenesulfonyl)-octanoic acid hydroxyamide], for which the melting point came out at 65 °C.

Turning to `COc1ccc(SC(C(=O)NO)C(C)C)cc1` (stereo not drawn) [Example 4, N-Hydroxy-2-(4methoxy-phenylsulfanyl)-3-methyl-butyramide], the melting point came out at 119 °C. On the same count and under the same terms, the result for `COc1ccc(S(=O)(=O)C2(C(=O)NO)CCN(CCCc3ccccc3)CC2)cc1` [Example 91, 4-(4-methoxy-benzenesulfonyl)-1-(3-phenyl-propyl)-piperidine-4-carboxylic acid hydroxyamide] reads 143 °C; that for `CCCCCC#CCC(Cc1cccnc1)(C(=O)NO)S(=O)(=O)c1ccc(OC)cc1` (stereo not drawn) (as salt: salt) [Example 74, 2-(4-Methoxy-benzenesulfonyl)-2-pyridin-3-ylmethyl-dec-4-ynoic acid hydroxyamide], 65 °C. In the case of `CCCCOc1ccc(S(=O)(=O)C2(C(=O)NO)CCN(CCCOc3ccccc3)CC2)cc1` [Example 106, 4-(4-n-Butoxy-benzenesulfonyl)-1-(3-phenoxy-propyl)-piperidine-4-carboxylic acid hydroxyamide], the melting point came to 84 °C.

The molecule `COc1ccc(S(=O)(=O)C(C)(Cc2ccc(OCCCN3CCN(c4cccc(Cl)c4)CC3)cc2)C(=O)NO)cc1` (stereo not drawn) (as salt: HCl) [Example 23, 3-(4-{3-[4-(3-Chloro-phenyl)-piperazin-1-yl]-propoxy}-phenyl)-N-hydroxy-2-(4-methoxy-benzenesulfonyl)-2-methyl-propionamide] registered a melting point of 122 °C. `COc1ccc(S(=O)(=O)C(CCCCOc2ccccc2)(Cc2cccnc2)C(=O)NO)cc1` (stereo not drawn) [Example 68, 2-(4-Methoxy-benzenesulfonyl)-6-phenoxy-2-pyridin-3-ylmethyl-hexanoic acid hydroxyamide] yielded a melting point of 68 °C. In turn, `COc1ccc(S(=O)(=O)C(CCC(C)C)(Cc2cccnc2)C(=O)NO)cc1` (stereo not drawn) (as salt: HCl) [Example 69, 2-(4-Methoxy-benzenesulfonyl)-5-methyl-2-pyridin-3-ylmethyl-hexanoic acid hydroxyamide] yielded a melting point of 62 °C.

`COc1ccc(S(=O)(=O)C(C)(Cc2ccc3ccccc3c2)C(=O)NO)cc1` (stereo not drawn) [Example 52, N-hydroxy-2-(4-methoxy-benzenesulfonyl)-2-methyl-3-naphthalen-2-yl-propionamide] returned a melting point of 185 to 187 °C. Regarding `C#CCC(CC#C)(C(=O)NO)S(=O)(=O)c1ccc(OC)cc1` [Example 73, 2-(4-Methoxy-benzenesulfonyl)-2-prop-2-ynyl-pent-4-ynoic acid hydroxyamide], the melting point was found to be 156 °C. The molecule `COc1ccc(S(=O)(=O)C(C)(CCCCN2C(=O)c3ccccc3C2=O)C(=O)NO)cc1` (stereo not drawn) [Example 31, 6-(1,3-Dioxo-1,3-dihydro-isoindol-2-yl)-2(4-methoxy-benzenesulfonyl)-2-methyl-hexanoic acid hydroxyamide] displayed a melting point of 146 to 148 °C.

Another series deals with T1, TACE (Homo sapiens, UniProt P78536).
T1 construct: purchased Immunex
T1 sequence (P78536 215-824): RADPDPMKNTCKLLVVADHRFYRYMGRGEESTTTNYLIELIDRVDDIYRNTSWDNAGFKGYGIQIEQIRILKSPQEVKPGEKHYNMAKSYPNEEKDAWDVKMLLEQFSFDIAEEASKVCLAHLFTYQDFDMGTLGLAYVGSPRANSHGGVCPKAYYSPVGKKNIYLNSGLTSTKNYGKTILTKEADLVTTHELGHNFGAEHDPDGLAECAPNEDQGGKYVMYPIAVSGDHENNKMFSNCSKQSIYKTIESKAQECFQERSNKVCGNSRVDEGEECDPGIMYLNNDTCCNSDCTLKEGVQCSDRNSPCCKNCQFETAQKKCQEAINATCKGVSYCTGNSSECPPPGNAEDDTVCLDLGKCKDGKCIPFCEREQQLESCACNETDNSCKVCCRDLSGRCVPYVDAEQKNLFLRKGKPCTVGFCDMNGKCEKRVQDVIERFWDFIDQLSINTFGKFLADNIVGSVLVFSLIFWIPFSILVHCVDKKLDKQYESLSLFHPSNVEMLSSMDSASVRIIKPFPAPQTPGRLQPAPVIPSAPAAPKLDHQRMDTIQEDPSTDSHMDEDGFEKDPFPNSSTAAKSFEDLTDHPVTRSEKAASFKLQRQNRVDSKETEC
As to the kind of experiment: Procedure for Measuring TACE Inhibition (fluorescent peptidyl substrate). Type of series: biochemical. Conditions: 1 mM. As to the method: Using 96-well black microtiter plates, each well recieves a solution composed of 10 μL TACE (Immunex, final concentration 1 μg/mL), 70 μL Tris buffer, pH 7.4 containing 10% glycerol (final concentration 10 mM), and 10 μL of test compound solution in DMSO (final concentration, DMSO concentration <1%) and incubated for 10 minutes at room temperature. The reaction is initiated by addition of a fluorescent peptidyl substrate (final concentration 100 μM) to each well and then shaking on a shaker for 5 sec. The reaction is read (excitation 340 nm, emission 420 nm) for 10 min. and the increase in fluorescence over time is plotted as a linear line. The slope of the line is calculated and represents the reaction rate. […] The mean (x±sem) of the control rate is calculated and compared for statistical significance (p<0.05) with drug-treated rates using Dunnett's multiple comparison test.
On to “(1-Hydroxycarbamoyl-propane-1-sulfinyl)-acetic acid hydroxy amide [Example 121]”, for which the “TACE % inhibition at 1 mM” value was found to be 6.1%.

The series is the same for the next values; noted with them: read-out: TACE IC 50.
As for `COc1ccc(S(=O)(=O)C(CC=C(C)C)(Cc2ccc(OCCN3CCOCC3)cc2)C(=O)NO)cc1` (stereo not drawn) [Example 24, 2-(4-Methoxy-benzenesulfonyl)-5-methyl-2-[4-(2-morpholin-4-yl-ethoxy)-benzyl]-hex-4-enoic acid hydroxyamide], the IC50 turned out to be 0.0475 µM.
